In US20090060875A1, “HCV Vaccines for Chronic HCV Patients” (INTERCELL AG, priority 2004, published 2009):

Experiments:
[1] = standard therapy, background; cited from earlier work
[2] = system: interferon gamma secreting T-cells (CD4+ Helper- and CD8+ cytotoxic T-cells); assay: Interferon-gamma ELIspot assay in phase 2 study of chronic HCV patients; format: in vivo, human; details: chronic HCV patients (FIG. 2)
Source text: (§1) In the present clinical study, each group consisted of 12 subjects, positive for HLA-A2. Subjects received 6 vaccinations in monthly intervals (at visits 3 to 8). Blood for immunological analyses was drawn prior vaccination and at visits 6 to 8, one month after last vaccination (visit 9), 3 months after last vaccination (visit 10) and 6 months after last vaccination (visit 11). For immunological monitoring of clinical trials, state-of-the-art T cell assays to determine immunological endpoints under GLP/GCP compliance were applied: Interferon-gamma ELIspot Assay, T cell Proliferation Assay, HLA-tetramer/FACS assay. These assays allow reliable measurements of epitope-specific T cell responses induced by the therapeutic HCV vaccine IC41. The vaccine-induced T cell immune responses serve as surrogate parameters of efficacy (Keilholz et al. 2002).
As secondary endpoints T-cell immunogenicity was determined by interferon gamma ELIspot. ELIspot allows quantification of peptide-specific, functional (i.e. cytokine-secreting) T cells in biological samples like human blood. The basis of the assay is that, T cells upon stimulation with a peptide specifically recognized by the T cell receptor react by secretion of cytokines like IFN-γ. […]
The filter-wells of this plate are coated with a Mab specific for IFN-γ. […] Spots can be counted using automated plate readers. […]

CD4+ Helper-T-cells = assay: T-cell proliferation assay ([3H]-thymidine) in phase 2 study of chronic HCV patients; format: in vivo, human; details: vaccinations at month 0-5, stimulation indices, median of 12 patients per group (FIG. 1), listed as poly-L-Arginine alone
Source text: as §1
As primary endpoint T-cell immunogenicity was determined by a T-cell proliferation assay. […] Proliferation of cells can be measured by a variety of means; among the most sensitive approaches ranks incorporation of radioactively labeled thymidine into DNA synthesized prior cell division. […] Cells are then harvested onto a filter plate: medium containing free radioactivity is washed away, whereas DNA sticks to the filter. Incorporated radioactivity can be quantified by means of a beta-scintillation counter determining counts-per-minute (cpm). […]

| Compound | Side effects [1] | Induction of interferon gamma secreting T-cells (type I T-cell response) [2] | CD4+ Helper-T-cell proliferation (induction of significant proliferative response) (CD4+ Helper-T-cells) |
| --- | --- | --- | --- |
| NC(=O)c1ncn([C@@H]2O[C@H](CO)[C@@H](O)[C@H]2O)n1 [Ribavirin, ribavirin] | teratogenic, mutagenic and carcinogenic potency |  |  |
| Poly-L-Arginine |  | cannot induce any response | not and neither peptides alone nor poly-L-Arginine alone have this ability |
